Measurements: US12577213B2 (NINGBO COMBIREG PHARMACEUTICAL TECHNOLOGY CO., LTD., priority 2020, dated 2026)

How the values were obtained:
[1] = system: HS 578T (breast cancer); experiment: NCI method SRB growth inhibition, HS 578T; type: cell-based; settings: Homo sapiens, HS578T, treated 48 hours, SRB stain
How it was run: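 SRB absorbance at 515 nm was the read-out, taken after 48 h of compound treatment and compared with plates fixed just before dosing and with vehicle-treated plates. Values are concentrations giving 50% growth inhibition (GI50), total growth inhibition (TGI) or 50% cell kill (LC50).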

[2] = Metabolic stability in vivo (plasma half-life after IV); settings: mouse, plasma, iv; intravenously at 1 mg/kg, male BALB/c nude mice; read-out: T½ of (IV in nude mice) (converted)
Method: The intravenous injection group of the embodiment compound was prepared with the mixed solvent of DMA:PEG400:30% SBECD=5:25:70 to form a 0.2 mg/mL of solution, and administered intravenously at 1 mg/kg of weight; and the oral preparation group was prepared with 0.5% MC to form a 1 mg/mL of solution, and administered by oral gavage at 10 mg/kg weight.
• Male BALB/c nude mice, 4-5 weeks old, purchased from Shanghai SLAC. 3. Experiment Method: 3.1 Instruments: • Liquid chromatography system: Shimadzu liquid chromatography system Shimadzu LC-30AD • MS/MS system: Applied Biosystems API5500 • Data collection: Analyst Software 1.5.2 3.2 Chromatographic Conditions Chromatographic Column • Analytical column: Kinetex 2.6u C18 100 A column (3.0 mm×30 mm) • Mobile phase: A: 10 mM NH4OAc (0.1% FA); B: Acetonitrile with 0.1% […] • Flow rate: 1.0 mL/min
Ion source was an electron spray ionization (ESI source) with negative ion detection; spray voltage source was 5500 V; ion source gas 1 (N2) was 50 psi; ion source gas 2 (N2) was 50 psi; air curtain gas (N2) was 30 psi. Scanning mode was multiple reaction monitoring (MRM); scanning time was 80 ms; collision gas pressure was 10 psi;
Grouping experiment, with three animals in each group, starting from now on, administration was started according to the weight of the animals. Blood was collected according to 5 min, 15 min, 30 min, 1 h, 2 h, 4 h, 8 h and 24 h after administration.
To 25.0 μL of plasma, 25.0 μL of internal standard solution (Tolbutamide (250 ng/mL) in acetonitrile), 25.0 μL of acetonitrile and 100 μL of acetonitrile were added, and the mixture was vortexed for 1 min, and centrifuged for 5 min (14000 rpm). 120 μL of the resulting supernatant was added with 80.0 μL of water (containing 1% formic acid) and mixed well, then analyzed by LC/MS/MS.

[3] = system: breast cancer cell line SUM159 sphere; experiment: Breast cancer stem cell sphere formation; type: cell-based, human; settings: 50 nM; for formation of the sphere after cell passage: 5 days of drug treatment, then passage
Method: The inhibitory effects of embodiment compounds 5, 7, 11, 13, 14, 20 and 21 on the formation of breast cancer cell line SUM159 sphere are described as follows.
The breast cancer cell line SUM159 sphere was cultured with serum-free medium in an ultra-low adsorption plate, the basal medium was DMEM/F12 (without phenol red), and B27 (without vitamin A) (1×), EGF (20 ng/ml), bFGF (20 ng/ml) and insulin (insulin, 5 ug/ml) were added.
An equal number (4000) of SUM159 cells per well were inoculated into an ultra-low adsorption 24 plate, and the sphere was photographed after 5 days of culture, replaced with fresh medium, and treated with drugs at certain concentrations, respectively. Compounds 5, 7, 11, 13, 14, 20 and 21 were evaluated in this experiment at 50 nM, respectively. The effect of the drug on the sphere phenotype could be observed after about 3 days of drug treatment. The sphere was photographed again after 5 days of drug treatment, and then the sphere was passaged. The sphere was photographed again after 7 days of passage.
The differences of the photographs taken in three different stages were counted and compared, and the killing effect of the tested compounds on SUM159 sphere was evaluated through the differences of sphere formation after passage, thus reflecting the inhibitory effects of different compounds on breast cancer stem cells.

Row | half-life [2] | Structure (SMILES) | GI50 [1] | killing effect on SUM159 sphere [3] | formation of the sphere after cell passage [3]
1 | 91.2 min | [2H]C([2H])([2H])Oc1cc(C(=O)Nc2cc3c(cc2Oc2cc(C)cc(C)c2)C(=O)N[C@@H](CC(=O)N(C([2H])([2H])C([2H])([2H])[2H])C([2H])([2H])C([2H])([2H])[2H])C(=O)N3)c(Br)c(OC([2H])([2H])[2H])c1OC([2H])([2H])[2H] [Compound 5, (S)-2-bromo-N-[3-[2-[bis(pentadeuteroethyl)amino]-2-oxoethyl]-7-(3,5-dimethylphenoxy)-2,5-dioxo-2,3,4,5-tetrahydro-1H-benzo[e][1,4]diazepin-8-yl]-3,4,5-tris(trideuteromethoxy)benzamide] | < 5 nM | strong killing effect | significantly reduced
2 | 35.1 min | [2H]C([2H])([2H])Oc1cc(C(=O)Nc2cc3c(cc2Oc2cc(C)cc(C)c2)C(=O)N(C)[C@@H](CC(=O)N(C)C)C(=O)N3)c(Br)c(OC([2H])([2H])[2H])c1OC([2H])([2H])[2H] [Compound 16, (S)-2-bromo-N-[3-[2-(dimethylamino)-2-oxoethyl]-7-(3,5-dimethylphenoxy)-4-methyl-2,5-dioxo-2,3,4,5-tetrahydro-1H-benzo[e][1,4]diazepin-8-yl]-3,4,5-tris(trideuteromethoxy)benzamide] | < 5 nM |  | 
3 | 48 min | [2H]C([2H])([2H])Oc1cc(C(=O)Nc2cc3c(cc2Oc2cc(C)cc(C)c2)C(=O)N[C@@H](CC(=O)N(C)C)C(=O)N3)c(Br)c(OC([2H])([2H])[2H])c1OC([2H])([2H])[2H] [Compound 20, (S)-2-bromo-N-[3-[2-(dimethylamino)-2-oxoethyl]-7-(3,5-dimethylphenoxy)-2,5-dioxo-2,3,4,5-tetrahydro-1H-benzo[e][1,4]diazepin-8-yl]-3,4,5-tris(trideuteromethoxy)benzamide] | < 5 nM | strong killing effect | significantly reduced
